Experimental data taken from US12729180B2, “Functionalized Maleimides and Isomaleimides and a process for preparation thereof” (COUNCIL OF SCIENTIFIC AND INDUSTRIAL RESEARCH, priority 2021, dated 2026).

Test system: MCF-7 breast cancer cell line
Assay: MTT assay against breast cancer cell line
Format: cell-based
Conditions: Homo sapiens, MCF7, 72 hours after treatment; for cytotoxicity at 100 µM / viability at 100 µM: MCF-7, 100 uM; for cytotoxicity at 100 µM / cytotoxicity at 300 µM: read-out: % Dead cells; for viability at 100 µM / viability at 300 µM: read-out: % Live cells; for cytotoxicity at 300 µM / viability at 300 µM: MCF-7, 300 uM
Protocol: In another embodiment, the functionalized maleimides and isomaleimides of Formula (I) are useful as antimicrobials and anti-cancer agents. MTT assay of compounds of Formula (I) is summarized below in Table-1 The compounds were tested against breast cancer cell line at 100 and 300 μM concentrations and % live and % dead cells were determined.
The compounds were evaluated for anti-cancer activity by testing them against breast cancer cell lines obtained from NCCS, Pune, India. The MITT assay was carried out. The assay procedure involves reconstitution of the pre-measured MTT reagent in the assay buffer, followed by its addition to the culture system. After dissolving the formazan crystals in the solubilization solution, results can be directly read on a suitable reader.
• 1. Harvest the cells; • 2. Seed 10,000 cells in 100 μl DMEM media/well in 96-well microtiter plate in triplicate; • 3. Incubate the cells at 37° C., 5% CO2 for 24 hours to achieve morphology; • 4. Treat the cells with varying concentrations of drugs; • 5. Controls included untreated cells and cells treated with 100 uM Doxorubicin; • 6. Incubate the cells for 72 hours after treatment; • 7. Add 10 μl of MTT to each well, including controls; • 8. Wrap the plate with aluminium foil to avoid exposure to light; • 9. Return the plate to the incubator for 2 hours; • 10. Observe the cells under an inverted microscope for presence of intracellular needle-shaped, dark purple coloured precipitate; • 11. When the purple precipitate is clearly visible under the microscope, add 100 μl of solubilization solution to the wells; • 12. Stir gently on a gyratory shaker to enhance dissolution of the crystals; • 13. Read the absorbance on a spectrophotometer or an ELISA reader at 570 nm with a reference wavelength higher than 650 nm.

## CCOC(=O)CC1=C(Cc2ccc3ccccc3c2)C(=O)O/C1=N\C1CCC(C)CC1 (stereo not drawn) [Compound 3j, Ethyl (Z)-2-(2-((4-methylcyclohexyl)imino)-4-(naphthalen-2-ylmethyl)-5-oxo-2,5-dihydrofuran-3-yl)acetate]
  cytotoxicity at 100 µM: 51.7%
  viability at 100 µM: 48.3%
  cytotoxicity at 300 µM: 59.7%
  viability at 300 µM: 40.3%

## CCOC(=O)CC1=C(Cc2ccc(F)c(F)c2)C(=O)O/C1=N\C1CCC(C)CC1 (stereo not drawn) [Compound 3g, Ethyl (Z)-2-(4-(3,4-difluorobenzyl)-2-((4-methylcyclohexyl)imino)-5-oxo-2,5-dihydrofuran-3-yl)acetate]
  cytotoxicity at 100 µM: 26.4%
  viability at 100 µM: 73.6%
  cytotoxicity at 300 µM: 47.2%
  viability at 300 µM: 52.8%

## CCOC(=O)CC1=C(Cc2cccc(Oc3ccccc3)c2)C(=O)O/C1=N\C1CCC(C)CC1 (stereo not drawn) [Compound 3c, Ethyl (Z)-2-(2-((4-methylcyclohexyl)imino)-5-oxo-4-(3-phenoxybenzyl)-2,5-dihydrofuran-3-yl) acetate]
  cytotoxicity at 100 µM: 32.9%
  viability at 100 µM: 67.1%
  cytotoxicity at 300 µM: 34.8%
  viability at 300 µM: 65.2%

## CCOC(=O)CC1=C(C(c2ccccc2)c2ccccc2)C(=O)O/C1=N\C1CCC(C)CC1 (stereo not drawn) [Compound 3p, Ethyl (Z)-2-(4-benzhydryl-2-((4-methylcyclohexyl)imino)-5-oxo-2,5-dihydrofuran-3-yl)acetate]
  cytotoxicity at 100 µM: 43.5%
  viability at 100 µM: 56.5%
  cytotoxicity at 300 µM: 51.1%
  viability at 300 µM: 48.9%

## CCOC(=O)CC1=C(Cc2ccc(Cl)cc2)C(=O)O/C1=N\C1CCC(C)CC1 (stereo not drawn) [Compound 3e, Ethyl (Z)-2-(4-(4-chlorobenzyl)-2-((4-methylcyclohexyl)imino)-5-oxo-2,5-dihydrofuran-3-yl)acetate]
  cytotoxicity at 100 µM: 45.3%
  viability at 100 µM: 54.7%
  cytotoxicity at 300 µM: 53.7%
  viability at 300 µM: 46.3%

## CCOC(=O)CC1=C(Cc2ccccc2F)C(=O)O/C1=N\C1CCC(C)CC1 (stereo not drawn) [Compound 3f, Ethyl (Z)-2-(4-(2-fluorobenzyl)-2-((4-methylcyclohexyl)imino)-5-oxo-2,5-dihydrofuran-3-yl)acetate]
  cytotoxicity at 100 µM: 26.6%
  viability at 100 µM: 73.4%
  cytotoxicity at 300 µM: 49.6%
  viability at 300 µM: 50.4%

## CCOC(=O)CC1=C(Cc2c3ccccc3cc3ccccc23)C(=O)O/C1=N\C1CCC(C)CC1 (stereo not drawn) [Compound 3k, Ethyl (Z)-2-(4-(anthracen-9-ylmethyl)-2-((4-methylcyclohexyl)imino)-5-oxo-2,5-dihydrofuran-3-yl)acetate]
  cytotoxicity at 100 µM: 27.4%
  viability at 100 µM: 72.5%
  cytotoxicity at 300 µM: 33%
  viability at 300 µM: 67%

## CCOC(=O)CC1=C(Cc2cc(OC)ccc2OC)C(=O)O/C1=N\C1CCC(C)CC1 (stereo not drawn) [Compound 3d, Ethyl (Z)-2-(4-(2,5-dimethoxybenzyl)-2-((4-methylcyclohexyl)imino)-5-oxo-2,5-dihydrofuran-3-yl)acetate]
  cytotoxicity at 100 µM: 32.9%
  viability at 100 µM: 67.1%
  cytotoxicity at 300 µM: 54.4%
  viability at 300 µM: 45.6%

## CCOC(=O)CC1=C(Cc2cccc(C(F)(F)F)c2)C(=O)O/C1=N\C1CCC(C)CC1 (stereo not drawn) [Compound 3h, Ethyl (Z)-2-(2-((4-methylcyclohexyl)imino)-5-oxo-4-(3-(trifluoromethyl)benzyl)-2,5-dihydrofuran-3-yl)acetate]
  cytotoxicity at 100 µM: 49.1%
  viability at 100 µM: 50.9%
  cytotoxicity at 300 µM: 60.9%
  viability at 300 µM: 39.1%
